Reference: PMC7308271, “Discovery of a new class of orthosteric antagonists with nanomolar potency at extrasynaptic GABAA receptors” (Scientific Reports, 2020)
Like-named read-outs stand apart in the source and are kept apart here.

Target: T1, human α1β2δ GABAΑ receptor (Homo sapiens, UniProt P14867+P47870)
T1 construct: expressed in transfected cells; host or cells: δ-HEK (HEK293 Flp-In stably expressing human δ), transiently transfected with α and β 1:1
T1 sequence (P14867 28-456): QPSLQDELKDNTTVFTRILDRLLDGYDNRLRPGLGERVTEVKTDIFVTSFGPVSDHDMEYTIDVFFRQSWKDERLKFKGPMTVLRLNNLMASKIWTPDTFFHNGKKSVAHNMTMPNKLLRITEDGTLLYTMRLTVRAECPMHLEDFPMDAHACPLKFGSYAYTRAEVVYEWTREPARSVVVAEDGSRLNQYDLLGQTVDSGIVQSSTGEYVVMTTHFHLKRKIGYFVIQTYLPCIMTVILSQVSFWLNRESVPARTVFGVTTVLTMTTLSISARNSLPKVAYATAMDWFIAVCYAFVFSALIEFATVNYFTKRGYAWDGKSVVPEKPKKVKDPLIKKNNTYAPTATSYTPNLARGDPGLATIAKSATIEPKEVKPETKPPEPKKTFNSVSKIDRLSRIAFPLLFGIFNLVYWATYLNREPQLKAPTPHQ
T1 sequence (P47870 25-512 limits assumed): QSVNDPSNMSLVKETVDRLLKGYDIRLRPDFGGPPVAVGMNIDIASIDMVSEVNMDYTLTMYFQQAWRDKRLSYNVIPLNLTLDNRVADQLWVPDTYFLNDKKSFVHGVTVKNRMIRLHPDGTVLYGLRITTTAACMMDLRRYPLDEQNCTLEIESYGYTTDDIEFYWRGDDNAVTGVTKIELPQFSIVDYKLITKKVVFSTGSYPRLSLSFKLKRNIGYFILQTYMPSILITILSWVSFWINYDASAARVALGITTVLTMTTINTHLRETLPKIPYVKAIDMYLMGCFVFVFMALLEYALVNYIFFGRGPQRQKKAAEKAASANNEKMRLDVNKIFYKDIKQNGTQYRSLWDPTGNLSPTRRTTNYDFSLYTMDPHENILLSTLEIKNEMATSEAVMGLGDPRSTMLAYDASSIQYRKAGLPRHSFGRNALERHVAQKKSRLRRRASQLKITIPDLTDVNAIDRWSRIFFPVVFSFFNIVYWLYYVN
T1 sequence (O14764 25-452 partner): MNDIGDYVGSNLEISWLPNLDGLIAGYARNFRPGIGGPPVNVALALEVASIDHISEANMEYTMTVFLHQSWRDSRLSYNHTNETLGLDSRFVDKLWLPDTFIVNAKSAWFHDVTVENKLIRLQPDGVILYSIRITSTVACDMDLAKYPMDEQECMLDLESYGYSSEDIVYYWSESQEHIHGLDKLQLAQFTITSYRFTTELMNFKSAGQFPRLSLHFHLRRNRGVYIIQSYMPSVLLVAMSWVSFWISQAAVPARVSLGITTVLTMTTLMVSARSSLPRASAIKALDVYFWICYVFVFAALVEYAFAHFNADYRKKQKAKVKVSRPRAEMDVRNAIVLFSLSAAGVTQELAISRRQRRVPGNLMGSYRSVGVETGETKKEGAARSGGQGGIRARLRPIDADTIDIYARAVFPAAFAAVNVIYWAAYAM
Assay: FMP assay at α1β2δ GABAA receptors in HEK cells
Type: cell-based
Procedure: HEK293 cells were maintained in DMEM containing GlutaMAX-I, supplemented with 10% FBS and 1% penicillin-streptomycin and incubated at 37 °C and a humidity of 5% CO2. For expression of δ-containing GABAΑ receptors, a HEK293 Flp-In^ΤΜ cell line stably expressing the human GABAΑ δ-subunits (referred to as δ-HEK) was used and the γ-containing subtypes was expressed in a background HEK293 Flp-In^ΤΜ cell line stably expressing the G-protein coupled peptide receptor NPBWR2 (referred to as HEK background)[26], both positively selected for using 200 μg/mL hygromycin B. α1β2γ2 receptors were stably expressed in a HEK293 cell line maintained as above but with no selection (gift from Marianne L. Jensen, Neurosearch).
To express recombinant GABAΑ receptors human α1, α2, α3, α5, α6, β2, γ2 (pcDNA3.1/Zeo) and α4, β1 (pUNIV)[26] subunit cDNA were transiently transfected into either δ-HEK or HEK background cells. δ-HEK cells were transfected with α- and β-subunits in a 1:1 ration whereas HEK background cells were transfected with α-, β- and γ-subunits in a 1:1:2 ratio. Human BGT1 (pcDNA5/FRT)[43] was transiently transfected into the δ-HEK cell line. δ-HEK cells transfected for whole-cell patch-clamp recordings were co-transfected with green fluorescent protein (GFP) as well as α- and β-subunits in a 0.5:1:1 ratio (0.8 μg + 1.6 μg + 1.6 μg in a 6 cm dish) in order to identify transfected cells. The transfection was carried out using Polyfect as transfection reagent according to the manufactures protocol expect for using half the recommended volume of Polyfect.
The FMP assay was performed as previously described with a few modifications. Briefly, HEK cells were transfected as described[26] and 16–20 hours later plated (50,000 cells/well in DMEM medium) into clear-bottomed black 96-well plates coated with poly-D-lysine and the assay performed 20–28 hours later. The assay protocol including the FMP blue dye incorporation into membranes was exactly as described in Falk-Petersen et al.[26]. […] Data was obtained as changes in fluorescence units (∆RFU) by measuring emission at 560 nm caused by excitation at 530 nm. Unless otherwise mentioned in the text or figure legends experiments were performed in at least three independent experiments each using three technical replicates. Due to an observed edge effect for the FMP assay, outer wells were not used except for the screening.
Data obtained in the FMP assay are given as relative changes in fluorescence units (ΔRFU) by subtracting the average of the baseline fluorescence signal from the peak fluorescence signal after compound addition. All raw traces were inspected manually and peak signals resulting from compound/buffer addition together with signal artefacts were omitted from the analysis.
The concentration-response curves obtained in the FMP assay for both agonists (determining EC50 values) and antagonists (determining IC50 values) were fitted using the four-parameter concentration-response model: Response=bottom+top−bottom/1+10^[(logEC50-A)⋅nH] EC/IC50 values describe the concentration resulting in the half-maximal response (halfway between top and bottom), and nΗ is the Hill coefficient. […] Gaddum Schild analysis was performed using GraphPad Prism version 8.2.1 (GraphPad Software Inc., San Diego, CA, USA). EC50/IC50 values obtained in the FMP assay are given as means ± SEM from at least three independent experiments with three technical replicates, as specified in the individual figure legends.

[1] = antagonist activity vs GABA EC80 10–14 μM, mean, read-out: IC50
[2] = vs GABA EC80, read-out: pIC50 ± SEM (converted)

Row | IC50 [1] [µM] | IC50 [2] [µM] | potency reduction of 2027 compared to 018 [times] | Compound | GABA EC80 (calculated from GABA potencies, used in antagonist tests) [µM]
1 | 0.24 | 0.245 |  | O=C(Nc1cccc(C(=O)N2CCC3(CCNCC3)CC2)c1)c1cccs1 [compound 018, N-(3-(3,9-diazaspiro[5.5]undecane-3-carbonyl)phenyl)thiophene-2-carboxamide] | 
2 | 6.68 | 6.76 | 28 | CC(=O)Nc1cccc(C(=O)N2CCC3(CCNCC3)CC2)c1 [compound 2027, N-(3-(3,9-diazaspiro[5.5]undecane-3-carbonyl)phenyl)acetamide] | 
3 |  |  |  | NCCCC(=O)O [GABA] | 10 to 14
